From PubChem BioAssay (NCI)
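Results reflect a 48-hour exposure of cells in 96-well plates to compound at five concentrations. The concentration for full growth arrest is given as TGI.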 Where a SMILES comes first, the peptide text is derived from it. Peptide text beside a SMILES is read from it. [ ]: non-standard residue; d: D form. The star is where a group is joined. * marks the point of attachment. Phe(4-NO2) = N[CH](Cc1ccc([N+](=O)[O-])cc1)C(=O)O; Boc = CC(C)(C)OC(=O)*; OtBu = CC(C)(C)O*

Columns and labels:
Test in all cases: NCI-60 cell line screen, 48 h
MDA-N = tested on: MDA-N
TK-10 renal = tested on: TK-10 renal
SW-620 colon = tested on: SW-620 colon
SF-295 CNS = tested on: SF-295 CNS
ACHN renal = tested on: ACHN renal
EKVX NSCLC = tested on: EKVX NSCLC
SN12C renal = tested on: SN12C renal
MOLT-4 leukemia = tested on: MOLT-4 leukemia
NCI-H226 lung = tested on: NCI-H226 lung
HCT-116 colon = tested on: HCT-116 colon

Structure (SMILES) | TGI (MDA-N) [µM] | TGI (TK-10 renal) [µM] | TGI (SW-620 colon) [µM] | TGI (SF-295 CNS) [µM] | TGI (ACHN renal) [µM] | TGI (EKVX NSCLC) [µM] | TGI (SN12C renal) [µM] | TGI (MOLT-4 leukemia) [µM] | TGI (NCI-H226 lung) [µM] | TGI (HCT-116 colon) [µM]
C/C(=C/CC[C@](C)(OC1OC(CO)C(O)C(O)C1O)[C@H]1CC[C@]2(C)[C@@H]1CC[C@@H]1[C@@]3(C)CC[C@H](O)C(C)(C)[C@@H]3C[C@H](O)[C@]12C)CO (stereo partly drawn) | 56.6 | > 100 | 62.4 | 35.1 | > 100 | > 100 | 66.4 | 53.6 | 60.4 | 42.7
COC(=O)c1ccc(OCc2ccc3nc(-c4ccccc4)c(Cl)nc3c2)cc1 | > 100 | > 100 | > 100 | > 100 | > 100 | > 100 | > 100 | > 100 |  | > 100
CCOc1cc(C=O)ccc1O | > 100 | > 100 | > 100 | > 100 | > 100 | > 100 | > 100 | > 100 | > 100 | > 100
Cc1cc(S(=O)(=O)NC(=NCC(=O)NN)NN)c(S)cc1Cl | > 10 | > 10 | > 10 | > 10 | > 10 | > 10 | > 10 | > 10 | > 10 | > 10
c1ccc(C/C(=N\Nc2nc3ccccc3o2)c2ccccn2)cc1 | 5.13 | 1.81 | 4.79 | 3.25 | 3.31 | < 0.0267 | 3.67 |  | 0.363 | 3.68
COC(=O)C(Cc1ccc([N+](=O)[O-])cc1)NC(=O)C(CC(=O)OC(C)(C)C)NC(=O)OC(C)(C)C (stereo not drawn) (Boc-Asp(OtBu)-[Phe(4-NO2)]-OMe; configuration not given here) | > 100 | > 100 | > 100 | > 100 | > 100 | > 100 | > 100 | > 100 | > 100 | > 100
Cn1c(=O)c2[nH]c(N/N=C3/SCC(=O)N3Cc3ccccc3)nc2n(C)c1=O | 36.5 | > 100 |  | > 100 | > 100 | > 100 | > 100 | > 100 | > 100 | > 100
O=C1O/C(=C\c2ccc(O)cc2)C(c2ccc(O)c(Cl)c2)=C1Br | > 100 | 49.9 | 37.9 | 28.9 | 30 | 40.7 | 46.4 | 49 |  | 23.6
COCCCN1C(=O)C2c3[nH]c4ccccc4c3C3CCC(C(C)(C)C)CC3C2C1=O (stereo not drawn) | > 100 | > 100 | > 100 | 56.3 | 83.9 | > 100 | 50 | 70 | 60.6 | 38.6
O=C(CCCN1CCc2[nH]c3cc(F)ccc3c2C1)c1ccc(F)cc1 | 29.2 | 24.9 | > 100 | 32.7 | 26.8 | 29.3 | 27.7 | 29 | 38.7 | 24.2
BrCC[P+](c1ccccc1)(c1ccccc1)c1ccccc1 | 7.59 | 34.5 | 34.4 | > 100 | > 100 | 12.8 | 8.39 | 24.3 |  | 8.38
CN(C)CCNc1nc2ccccc2c2c1C(=O)c1ccccc1-2 | 1.39 | 10.5 | 4.9 | 3.31 | 0.601 | 3.09 | 0.45 | 0.098 | 0.862 | 1.38
CC(=O)Nc1ccc(C(=O)N2N=C(C)/C(=C/c3cccc(O)c3)C2=O)cc1 |  | > 100 | > 100 | > 100 | > 100 | > 100 | > 100 | > 100 | > 100 | > 100
CSc1nc2c(ncn2C2OCC(O)C(O)C2O)c(=O)[nH]1 (stereo not drawn) |  |  | > 100 | > 100 |  | > 100 | > 100 | > 100 | > 100 | > 100
CSCCC(NC(=O)C(CC(C)C)NC(=O)CNC(=O)OC(C)(C)C)C(=O)N(C)C (stereo not drawn) (Boc-Gly-Leu-Met-NMe2; configuration not given here) | > 100 | > 100 | > 100 | > 100 | > 100 | > 100 | > 100 | > 100 | > 100 | > 100
Cc1c(-c2coc(-c3ccc(Cl)cc3)n2)c(=O)n(-c2ccccc2)n1C |  | > 100 |  | > 100 | > 100 | > 100 | > 100 | > 100 | > 100 | > 100
COC1=CC2(C=CC1=O)CCN=c1c(O)c3c(c(O)c12)=NC=N3 (stereo not drawn) | > 100 | > 100 | > 100 | > 100 | > 100 | > 100 | > 100 | > 100 |  | > 100
Cc1cccc(N2CCN(S(=O)(=O)c3ccc(Cl)cc3)C2=N)c1C | > 100 | > 100 | > 100 | > 100 | > 100 |  | > 100 | > 100 | > 100 | > 100
COc1ccc(S(=O)(=O)Nc2ccc(-c3csc(N4C(=O)/C(=C/C=C\c5ccccc5)N=C4c4ccccc4)n3)cc2)cc1Cl | 80.7 | > 100 | > 100 | > 100 | > 100 |  | > 100 | > 100 | > 100 | 68.5
Cc1[nH]c(=O)nc(N/N=C/c2ccc(O)cc2)c1C(=O)Nc1ccc(Cl)cc1 |  | > 100 | > 100 |  | > 100 | > 100 | > 100 | > 100 | > 100 | > 100
COc1cc(CC(=O)c2ccc3c(c2)OCO3)cc(OC)c1OC |  | > 100 | 46.3 | > 100 | > 100 | > 100 | > 100 | > 100 | > 100 | > 100
